One data set concerns rat hepatocytes. Put plainly: Hepatocyte intrinsic clearance and metabolite profile. Particulars: fexinidazole 10 µM. It is filed as in vitro ADME. The procedure:
Fexinidazole was incubated with cryopreserved hepatocytes from male CD-1 mice, male Sprague Dawley rats, male beagle dogs, male cynomolgus monkeys, and from pooled white or African-American human donor samples (purchased commercially), at concentrations of 1 µM and 10 µM. […] The incubated samples were analyzed by LC-MS after extraction into acetonitrile.
A quality control analysis of fexinidazole was performed via 1H-NMR in DMSO and LC- […]
provided by the Swiss Tropical Institute (Basel, Switzerland).
Reagents and solvents were of analytical grade and obtained from Sigma-Aldrich (St. Louis, […]
Cryopreserved hepatocytes from the male CD1 mouse, lot CSI; male Sprague Dawley rat, lot LPL; male beagle dog, lot BWX; male cynomolgus monkey, lot EHH; and pooled human samples, lot MJI, were purchased from In Vitro Technologies Inc (Baltimore, Maryland, […]
5.4. In vitro Incubations
On the day of the experiment a 10 mM stock solution of fexinidazole in DMSO was prepared and, within 3 hours, aliquots of this freshly prepared solution, after suitable dilution, were added to the incubation matrix, to reach fexinidazole final concentrations of 1 and 10 µM. The final percentage of DMSO was 0.01% in the incubation samples for the […]
On the day of experiment, the cryopreserved hepatocytes were thawed following the detailed instructions provided by the supplier.
The number of viable cells was determined using a Trypan Blue exclusion method.
5.4.1. Intrinsic Clearance Study […]
µM with mouse, rat, dog, monkey and human hepatocytes (300000 cells/mL for the mouse and 1 million cells/mL for the other species) in a final incubation volume of 0.75 mL […]
Incubations were performed in duplicate in a 48-well plate under shaking. Sampling was performed using an automatic liquid handling system (Multiprobe II EX, Packard). At 0, 1, 5, 10, 15, 20, 30, 60 and 120 minutes, 50 µL aliquots of the incubates were taken, then 80 µL of ice-cold acetonitrile and 20 µL of 1 µM warfarin in acetonitrile (internal standard) were added, and samples centrifuged at 2000 rpm for 20 min. The supernatant was analyzed by LC-MS/MS. […]
the medium alone at t = 0 and 120 minutes.
For the determination of phase I and phase II activity of hepatocytes, 7-ethoxycoumarin (7-EC) 1 µM, and 7-hydroxycoumarin (7-HC) 30 µM were used as positive controls and incubated under the same conditions as fexinidazole. Aliquots of incubates were taken at 0, 10, 20, 30, 60 and 120 minutes and processed as fexinidazole samples.
5.4.2. Metabolite Profile Study
For metabolite profiling, fexinidazole was incubated at a concentration of 10 µM with mouse, rat, dog, monkey and human hepatocytes (300000 cells/mL for the mouse and 1 million cells/mL for the other species) in a final incubation volume of 2 mL Leibovitz L-15 […]
Aliquots of the incubation samples were taken at t = 0, 30 and 120 minutes; the metabolism was stopped by the addition of an equal volume of cold acetonitrile and the samples centrifuged at 1500 rpm for 20 min. The supernatant was stored at -20°C until analysis. Control incubations were performed with the compound in the medium alone […]
5.5. Analysis of Samples for Intrinsic Clearance Determination
The analysis of the samples for intrinsic clearance determination was performed by an LC-MS/MS method, using the following conditions:
HPLC Equipment and Conditions
HPLC system Agilent 1100 binary pump (Agilent, Palo Alto, USA)
Autosampler CTC Pal (Alfatech, San Jose, USA)
Analytical column Guard Column SB-C8 4.6 x 12.5 mm, 5 µm (Zorbax)
Column temperature ambient
Mobile phase A 10 mM ammonium formate pH 4.0: acetonitrile (95:5, v:v)
Mobile phase B 10 mM ammonium formate pH 4.0: acetonitrile (5:95, v:v) […]
Gradient conditions Step Total time (min) flow (µL/min) %A % B […]
MS Equipment and Conditions
Mass spectrometer API 4000 Triple Quadrupole (MDS-Sciex, Toronto, […]
Source Turbo Ion Spray (TIS)
Ion mode Positive for fexinidazole and 7-EC.
Negative for 7-HC, 7-HC sulphate and 7-HC glucuronide.

A short description of data set [1]: Dog single-dose IV and oral pharmacokinetics. It is filed as in vivo. Conditions: for AUC(0-t): read-out: AUC0-t(last); for half-life: read-out: t1/2,z (converted). As for the experimental part:
Pharmacokinetic Report for the study No. 0320-2007
Fexinidazole was given as IV and oral administrations to male Beagle dogs according to the […]
Dog ID Route Dose Formulation
IV dose was administered via the radial vein, the oral dose was administered by gastric […]
gavage. A washout period of […] was allowed between the IV (Day 1) and oral (Day 12) […]
4.2. Sample Collection and Handling
Blood was withdrawn from jugular vein and collected in heparinized plastic tubes kept on an […]
ice/water bath, then centrifuged at 1200g for 10 minutes at 4°C. Three aliquots of the […]
separated plasma (about 0.2 mL) was stored at -80°C until analysis for Fexinidazole and its […]
sulphone and sulphoxide metabolites. Blood was taken at pre-dose and 0.083 (5 minutes), […]
4.3. Bioanalytical Method
Plasma concentrations of Fexinidazole and its sulphone and sulphoxide metabolites were […]
determined by LC-MS-MS method following plasma protein precipitation. The lower limit […]
of quantification of the bioanalytical method was 5 ng/mL for all analytes. Bioanalytical data […]
Details of the bioanalytical method used are reported in Appendix 2 and analytical […]
performances of calibration standards are reported in Appendix 3.
4.4. Pharmacokinetic Calculations
Pharmacokinetic evaluations of Fexinidazole and sulphone and sulphoxide metabolites were […]
For the calculations, the pre-dose concentrations of Fexinidazole were set equal to C0.083 […]
after IV administration, whilst the pre-dose concentrations of Fexinidazole after oral […]
administration and the pre-dose concentrations of the metabolites after both doses were set […]
Nerviano Medical Sciences
After IV and oral dosing, Cmax (C0.083 for Fexinidazole after IV dosing) and tmax of each […]
concentration. After both doses, for each compound, the area under plasma concentration vs. […]
last detectable concentration. The half-life of the terminal phase, t1/2,z, was determined by […]
linear regression analysis of the natural-log concentration vs. time curve, where t1/2,z = […]
ln(2)/slope of the regression line. […]
infinite time, AUC0-∞, was determined as
AUC0- ∞ = AUC0 − t(last) + Ct(last)⋅ […]
The fraction of AUC0-∞ accounted for by the extrapolated area under the curve was […]
%EXTt (last)− 0∞=100⋅AUCt(last)−∞
After IV dosing, plasma clearance and volume of distribution at steady state of Fexinidazole […]
were calculated as follows:
Vss = CL⋅MRT, where MRT is the mean residence time.
Absolute bioavailability of Fexinidazole was calculated from the ratio of individual oral to […]
IV dose-normalized AUC0-t(last) and AUC0-∞ values.
After both doses, Cmax and AUC values of each compound were also normalized to a 1 […]
pharmacokinetic parameters sorted by compound and route of dosing.
Plasma concentrations and pharmacokinetic parameters of each compound were reported to […]
three significant figures.
5.1.1. Clinical and Physical Examinations
Individual clinical signs are reported in Appendix 4. […]
treatments with Fexinidazole. No meaningful clinical signs were recorded during wash out

The nature of another data set: Lipophilicity (logD). It is filed as physicochemical. Conditions: pH 7.4.
The mark [2] stands for this setting: dog, plasma, fexinidazole 1 mg/kg IV, male Beagle dogs, read-out: Cmax (C0.083 for parent).
The mark [3] stands for this setting: male, Beagle, dog, plasma, fexinidazole 1 mg/kg IV.
[4] abbreviates: male, Beagle, dog, plasma, fexinidazole 10 mg/kg oral.
Where [5] appears, read: male, Beagle, dog, plasma, fexinidazole 10 mg/kg oral, read-out: Cmax.
Where [6] appears, read: dog, oral 10 mg/kg vs IV 1 mg/kg.

Several values for one entry are separate records, joined by “and”; a condition that tells them apart may be missing. Equal entries are not always repeated. Where two headings read alike, the source gives them in different places.

The Cmax is the peak of the concentration-time curve. As a reminder, the Tmax is the time from dosing to the highest level. What is called logD is lipophilicity at a set pH, counting ionised and neutral species. A low value points to lower lipophilicity. The AUC(0-inf) is total exposure, with the tail of the curve extrapolated. Read a low AUC(0-inf) as low exposure.

For `Cn1c([N+](=O)[O-])cnc1COc1ccc(S(C)(=O)=O)cc1` [Fexinidazole sulfone], the “% of total drug related material” value came to 10% in the data set on rat hepatocytes (30 min) and 32% in the data set on rat hepatocytes (120 min). Moreover, the Cmax came out at 681 ± 162 ng/mL in data set [1] (setting [2]) and 3260 ± 762 ng/mL in data set [1] (setting [5]). Further, the time to peak (Tmax) in data set [1] (setting [3]) worked out at 4.67 h; in data set [1] (setting [4]), 6.67 h. Further, the AUC(0-t) in data set [1] (setting [3]) was 5270 ± 1230 ng·h/mL; in data set [1] (setting [4]), 44700 ± 3810 ng·h/mL. The same compound gave a logD in the data set “Lipophilicity (logD)” of 0.74.
With `Cn1c([N+](=O)[O-])cnc1COc1ccc([S+](C)[O-])cc1` (stereo not drawn) [Fexinidazole sulfoxide], the results for the “% of total drug related material” value in the data set with rat hepatocytes (30 min), in the data set on rat hepatocytes (120 min) and with rat hepatocytes (t=0) were 90%, 68% and 32%, respectively. Further, the Cmax in data set [1] (setting [2]) worked out at 763 ± 45.3 ng/mL; in data set [1] (setting [5]), 1900 ± 186 ng/mL. The AUC(0-inf) came out at 1520 ± 208 ng·h/mL in data set [1] (setting [3]) and 8780 ± 895 ng·h/mL in data set [1] (setting [4]). Moreover, the Tmax in data set [1] (setting [3]) was 0.194 h; in data set [1] (setting [4]) it was 1.17 h. For the same compound, the AUC(0-t) in data set [1] (setting [3]) is 1480 ± 197 ng·h/mL; in data set [1] (setting [4]), 8560 ± 767 ng·h/mL. Further, the half-life is 1.16 h in data set [1] (setting [3]) and 5.72 h in data set [1] (setting [4]). Moreover, the pH-dependent lipophilicity (logD) in the data set “Lipophilicity (logD)” stood at 0.52.
On to `CSc1ccc(OCc2ncc([N+](=O)[O-])n2C)cc1` [Fexinidazole, 1-methyl-2-((p-(methylthio)phenoxy)methyl)-5-nitroimidazole], for which the “% of total drug related material” value with rat hepatocytes (t=0) amounted to 68%. In addition, the clinical signs result in data set [1] (1 mg/kg IV and 10 mg/kg oral) is listed as “No significant treatment related clinical signs”. Further, in data set [1] (setting [6]), the “F% AUC0-t(last)” value is 10% and 9.60 ±4.32%; the “F% AUC0-∞” value was 14.1%. The maximum concentration (Cmax) in data set [1] (setting [2]) amounted to 320 ± 136 ng/mL. The clearance in data set [1] (male, Beagle, dog, plasma, 1 mg/kg IV) was determined as 273 mL/min/kg. In addition, the Vd in data set [1] (male, Beagle, dog, plasma, 1 mg/kg IV, read-out: Vss) turned out to be 3.26 L/kg. For the same compound, in data set [1] (setting [3]), the AUC(0-inf) was 70.6 ± 33.8 ng·h/mL, the AUC(0-t) is 66.9 ± 31.8 ng·h/mL and the half-life was 0.406 h. For the same compound, in data set [1] (setting [4]), the AUC(0-inf) was 85.3 ± 1.27 ng·h/mL, the Tmax is 0.667 h, the AUC(0-t) came out at 57.2 ± 13.4 ng·h/mL and the half-life is 1.93 h. Also, the Cmax in data set [1] (setting [5]) turned out to be 24.2 ± 5.86 ng/mL. Besides, the logD in “Lipophilicity (logD)” was 2.83.

The values above are taken from article PMC3006138, “Fexinidazole – A New Oral Nitroimidazole Drug Candidate Entering Clinical Development for the Treatment of Sleeping Sickness” (PLoS Neglected Tropical Diseases, 2010).
